Active and inactive are the calls of the source. No cut-off for these calls is given here.
Key:
Caco-2 [1] = assay: Anticancer activity against human Caco-2 cells assessed as smaller cells incubated at 0.097uM for 72 hrs by phase contrast inverted microscopic analysis; type: functional, cell-based
HepG2 [2] = assay: Induction of apoptosis in human HepG2 cells assessed as viable cells incubated at 0.097 uM for 72 hrs by annexin V-FITC based propidium iodide dual staining assay (reference value: 97.27%); type: functional; settings: read-out: Activity
HeLa [3] = assay: Induction of apoptosis in human HeLa cells assessed as late apoptotic cells by measuring orange to red patch incubated at 0.097 uM for 72 hrs by acridine orange-ethidium bromide dual staining based fluorescence microscopic analysis; type: functional, cell-based
Caco-2 [4] = assay: Induction of apoptosis in human Caco-2 cells assessed as early apoptotic cells by measuring bright green patch incubated at 0.097 uM for 72 hrs by acridine orange-ethidium bromide dual staining based fluorescence microscopic analysis; type: functional, cell-based
Caco-2 [5] = assay: Anticancer activity against human Caco-2 cells assessed as absence of normal spindle shape incubated at 0.097uM for 72 hrs by phase contrast inverted microscopic analysis; type: functional, cell-based
HeLa [6] = assay: Anticancer activity against human HeLa cells assessed as cell shrinkage incubated at 0.097uM for 72 hrs by phase contrast inverted microscopic analysis; type: functional, cell-based
HeLa [7] = assay: Induction of apoptosis in human HeLa cells assessed as caspase3/7 activation at 0.097 uM using caspase-glo 3/7 as substrate relative to control; type: functional
HeLa [8] = assay: Induction of apoptosis in human HeLa cells assessed as necrotic cells incubated at 0.097 uM for 72 hrs by annexin V-FITC based propidium iodide dual staining assay (reference value: 0%); type: functional
Caco-2 [9] = assay: Induction of apoptosis in human Caco-2 cells assessed as caspase3/7 activation at 0.097 uM using caspase-glo 3/7 as substrate relative to control; type: functional
Caco-2 [10] = assay: Induction of apoptosis in human Caco-2 cells assessed as late apoptotic cells incubated at 0.097 uM for 72 hrs by annexin V-FITC based propidium iodide dual staining assay (reference value: 0.02%); type: functional
HepG2 [11] = assay: Anticancer activity against human HepG2 cells assessed as smaller cells incubated at 0.097uM for 72 hrs by phase contrast inverted microscopic analysis; type: functional, cell-based
MCF7 [12] = assay: Induction of apoptosis in human MCF7 cells assessed as late apoptotic cells by measuring orange to red patch incubated at 0.11 uM for 72 hrs by acridine orange-ethidium bromide dual staining based fluorescence microscopic analysis; type: functional, cell-based
dsDNA [13] = assay: Induction of damage in dsDNA (unknown origin) assessed as disrupted by DNA by measuring decrease in fluorescence intensity at 100 uM incubated for 50 mins by EvaGreen based fluorescence plate reader analysis; type: nucleic-acid assay
MCF7 [14] = assay: Anticancer activity against human MCF7 cells assessed as cell shrinkage incubated at 0.11 uM for 72 hrs by phase contrast inverted microscopic analysis; type: functional, cell-based
Caco-2 [15] = assay: Anticancer activity against human Caco-2 cells assessed as absence of normal spindle shape incubated at 0.11 uM for 72 hrs by phase contrast inverted microscopic analysis; type: functional, cell-based
Caco-2 [16] = assay: Anticancer activity against human Caco-2 cells assessed as round cells incubated at 0.11 uM for 72 hrs by phase contrast inverted microscopic analysis; type: functional, cell-based
Caco-2 [17] = assay: Induction of apoptosis in human Caco-2 cells assessed as total apoptotic cells incubated at 0.11 uM for 72 hrs by annexin V-FITC based propidium iodide dual staining assay (reference value: 0.04 +/- 0.005%); type: functional
Caco-2 [18] = assay: Induction of apoptosis in human Caco-2 cells assessed as early apoptotic cells by measuring bright green patch incubated at 0.11 uM for 72 hrs by acridine orange-ethidium bromide dual staining based fluorescence microscopic analysis; type: functional, cell-based
MCF7 [19] = assay: Anticancer activity against human MCF7 cells assessed as losing contact with neighbouring cells incubated at 0.11 uM for 72 hrs by phase contrast inverted microscopic analysis; type: functional, cell-based
dsDNA [20] = assay: Induction of damage in dsDNA (unknown origin) assessed as disrupted by DNA by measuring decrease in fluorescence intensity at 100 uM incubated for 2.5 hrs by EvaGreen based fluorescence plate reader analysis; type: nucleic-acid assay
HeLa [21] = assay: Induction of apoptosis in human HeLa cells assessed as total apoptotic cells incubated at 0.11 uM for 72 hrs by annexin V-FITC based propidium iodide dual staining assay (reference value: 0 +/- 0.035%); type: functional
Caco-2 [22] = assay: Anticancer activity against human Caco-2 cells assessed as cell shrinkage incubated at 0.11 uM for 72 hrs by phase contrast inverted microscopic analysis; type: functional, cell-based
MCF7 [23] = assay: Anticancer activity against human MCF7 cells assessed as round cells incubated at 0.098uM for 72 hrs by phase contrast inverted microscopic analysis; type: functional, cell-based
HeLa [24] = assay: Induction of apoptosis in human HeLa cells assessed as early apoptotic cells by measuring bright green patch incubated at 0.098 uM for 72 hrs by acridine orange-ethidium bromide dual staining based fluorescence microscopic analysis; type: functional, cell-based
HeLa [25] = assay: Induction of apoptosis in human HeLa cells assessed as total apoptotic cells incubated at 0.098 uM for 72 hrs by annexin V-FITC based propidium iodide dual staining assay (reference value: 0 +/- 0.035%); type: functional
Caco-2 [26] = assay: Induction of apoptosis in human Caco-2 cells assessed as total apoptotic cells incubated at 0.098 uM for 72 hrs by annexin V-FITC based propidium iodide dual staining assay (reference value: 0.04 +/- 0.005%); type: functional
Caco-2 [27] = assay: Anticancer activity against human Caco-2 cells assessed as round cells incubated at 0.098uM for 72 hrs by phase contrast inverted microscopic analysis; type: functional, cell-based
HepG2 [28] = assay: Anticancer activity against human HepG2 cells assessed as cell shrinkage incubated at 0.098uM for 72 hrs by phase contrast inverted microscopic analysis; type: functional, cell-based
HeLa [29] = assay: Induction of oxidative stress in human HeLa cells assessed as cell death by measuring redox alteration fluorescence incubated at 0.027 uM for 72 hrs in presence of dihydro dichlorofluorescein diacetate by DCFH-DA based flow cytometric analysis relative to control; type: functional
HeLa [30] = assay: Induction of apoptosis in human HeLa cells assessed as caspase3/7 activation at 0.017 uM using caspase-glo 3/7 as substrate relative to control; type: functional
HepG2 [31] = assay: Induction of apoptosis in human HepG2 cells assessed as late apoptotic cells incubated at 0.017 uM for 72 hrs by annexin V-FITC based propidium iodide dual staining assay (reference value: 0.66%); type: functional
HeLa [32] = assay: Induction of apoptosis in human HeLa cells assessed as viable cells by measuring green uniform patch incubated at 0.017 uM for 72 hrs by acridine orange-ethidium bromide dual staining based fluorescence microscopic analysis; type: functional, cell-based
HepG2 [33] = assay: Induction of apoptosis in human HepG2 cells assessed as total apoptotic cells incubated at 0.017 uM for 72 hrs by annexin V-FITC based propidium iodide dual staining assay (reference value: 0.99 +/- 0.02%); type: functional
Caco-2 [34] = assay: Induction of apoptosis in human Caco-2 cells assessed as caspase3/7 activation at 0.017 uM using caspase-glo 3/7 as substrate relative to control; type: functional
HepG2 [35] = assay: Induction of oxidative stress in human HepG2 cells assessed as cell death by measuring redox alteration fluorescence incubated at 0.017 uM for 72 hrs in presence of dihydro dichlorofluorescein diacetate by DCFH-DA based flow cytometric analysis relative to control; type: functional
Caco-2 [36] = assay: Induction of apoptosis in human Caco-2 cells assessed as necrotic cells incubated at 0.017 uM for 72 hrs by annexin V-FITC based propidium iodide dual staining assay (reference value: 0.02%); type: functional

NS(=O)(=O)c1ccc(-n2cc(CN3C(=O)CN(/N=C/c4ccc([N+](=O)[O-])o4)C3=O)nn2)cc1
Activity (Caco-2 [1]): Active | viability at 0.097 µM (HepG2 [2]): 78.9% | Activity (HeLa [3]): Active | Activity (Caco-2 [4]): Active | Activity (Caco-2 [5]): Active | Activity (HeLa [6]): Active | Activity (HeLa [7]): 58% | Activity (HeLa [8]): 4.26% | Activity (Caco-2 [9]): 58% | Activity (Caco-2 [10]): 22.46% | Activity (HepG2 [11]): Active

C#CCN1C(=O)CN(/N=C/c2ccc([N+](=O)[O-])o2)C1=O
Activity (MCF7 [12]): Active | Activity (dsDNA [13]): Active | Activity (MCF7 [14]): Active | Activity (Caco-2 [15]): Active | Activity (Caco-2 [16]): Active | Activity (Caco-2 [17]): 45.81% | Activity (Caco-2 [18]): Active | Activity (MCF7 [19]): Active | Activity (dsDNA [20]): Active | Activity (HeLa [21]): 25.17% | Activity (Caco-2 [22]): Active

O=C(CN1C(=O)CN(/N=C/c2ccc([N+](=O)[O-])o2)C1=O)c1ccc(Cl)cc1
Activity (MCF7 [23]): Active | Activity (HeLa [24]): Active | Activity (HeLa [25]): 64.08% | Activity (Caco-2 [26]): 30.95% | Activity (Caco-2 [27]): Active | Activity (HepG2 [28]): Active

O=c1[nH]cc(F)c(=O)[nH]1 [FLUOROURACIL]
Activity (HeLa [29]): 4.91% | Activity (HeLa [30]): 12% | Activity (HepG2 [31]): 2.34% | Activity (HeLa [32]): Active | Activity (HepG2 [33]): 3.9% | Activity (Caco-2 [34]): 12% | Activity (HepG2 [35]): 4.78% | Activity (Caco-2 [36]): 0.97%
